Source: the kinase profiling compilation of Christmann-Franck et al. (2016)
“And” between values parts separate entries of the source, which are not always exact repeats. Equal entries are not always repeated.

How the values were obtained:
Test in all cases: radiometric filter-binding kinase assay, Kinase HotSpot
Details in all cases: compound 0.5 µM; ATP 10 µM
MAP4K4 (human) = MAP4K4 (human) (UniProt O95819)
STK16 (human) = STK16 (human) (UniProt O75716)
TAOK2 (human) = TAOK2 (human) (UniProt Q9UL54)
MAP2K2 (human) = MAP2K2 (human) (UniProt P36507)
MAP3K2 (human) = MAP3K2 (human) (UniProt Q9Y2U5)
SYK (human) = SYK (human) (UniProt P43405)
PRKCD (human) = PRKCD (human) (UniProt Q05655)
MAP3K7 TAB1 (human) = MAP3K7 TAB1 (human) (UniProt O43318+Q15750)
PIM1 (human) = PIM1 (human) (UniProt P11309)
PRKCH (human) = PRKCH (human) (UniProt P24723)
PASK (human) = PASK (human) (UniProt Q96RG2)
STK17A (human) = STK17A (human) (UniProt Q9UEE5)
NEK4 (human) = NEK4 (human) (UniProt P51957)
DCLK2 (human) = DCLK2 (human) (UniProt Q8N568)
MARK2 (human) = MARK2 (human) (UniProt Q7KZI7)
BRSK1 (human) = BRSK1 (human) (UniProt Q8TDC3)
PRKG1 (human) = PRKG1 (human) (UniProt Q13976)
MARK3 (human) = MARK3 (human) (UniProt P27448)
EGFR (human) = EGFR (human) (UniProt P00533)
CDK2 CCNE1 (human) = CDK2 CCNE1 (human) (UniProt P24941+P24864)
FYN (human) = FYN (human) (UniProt P06241)
CSNK1D (human) = CSNK1D (human) (UniProt P48730)
TSSK2 (human) = TSSK2 (human) (UniProt Q96PF2)
CDK6 CCND1 (human) = CDK6 CCND1 (human) (UniProt Q00534+P24385)
TSSK1B (human) = TSSK1B (human) (UniProt Q9BXA7)
OXSR1 (human) = OXSR1 (human) (UniProt O95747)
CAMKK2 (human) = CAMKK2 (human) (UniProt Q96RR4)
BMX (human) = BMX (human) (UniProt P51813)
ZAP70 (human) = ZAP70 (human) (UniProt P43403)
EPHA1 (human) = EPHA1 (human) (UniProt P21709)
DMPK (human) = DMPK (human) (UniProt Q09013)
GSG2 (human) = GSG2 (human) (UniProt Q8TF76)
STK33 (human) = STK33 (human) (UniProt Q9BYT3)
GRK6 (human) = GRK6 (human) (UniProt P43250)
IRAK1 (human) = IRAK1 (human) (UniProt P51617)
LYN (human) = LYN (human) (UniProt P07948)
AXL (human) = AXL (human) (UniProt P30530)
PRKCI (human) = PRKCI (human) (UniProt P41743)
ADRBK1 (human) = ADRBK1 (human) (UniProt P25098)
EPHA7 (human) = EPHA7 (human) (UniProt Q15375)
NEK11 (human) = NEK11 (human) (UniProt Q8NG66)
RAF1 (human) = RAF1 (human) (UniProt P04049)

Chain of EPHA7 (human) (Q15375 whole entry, looked up): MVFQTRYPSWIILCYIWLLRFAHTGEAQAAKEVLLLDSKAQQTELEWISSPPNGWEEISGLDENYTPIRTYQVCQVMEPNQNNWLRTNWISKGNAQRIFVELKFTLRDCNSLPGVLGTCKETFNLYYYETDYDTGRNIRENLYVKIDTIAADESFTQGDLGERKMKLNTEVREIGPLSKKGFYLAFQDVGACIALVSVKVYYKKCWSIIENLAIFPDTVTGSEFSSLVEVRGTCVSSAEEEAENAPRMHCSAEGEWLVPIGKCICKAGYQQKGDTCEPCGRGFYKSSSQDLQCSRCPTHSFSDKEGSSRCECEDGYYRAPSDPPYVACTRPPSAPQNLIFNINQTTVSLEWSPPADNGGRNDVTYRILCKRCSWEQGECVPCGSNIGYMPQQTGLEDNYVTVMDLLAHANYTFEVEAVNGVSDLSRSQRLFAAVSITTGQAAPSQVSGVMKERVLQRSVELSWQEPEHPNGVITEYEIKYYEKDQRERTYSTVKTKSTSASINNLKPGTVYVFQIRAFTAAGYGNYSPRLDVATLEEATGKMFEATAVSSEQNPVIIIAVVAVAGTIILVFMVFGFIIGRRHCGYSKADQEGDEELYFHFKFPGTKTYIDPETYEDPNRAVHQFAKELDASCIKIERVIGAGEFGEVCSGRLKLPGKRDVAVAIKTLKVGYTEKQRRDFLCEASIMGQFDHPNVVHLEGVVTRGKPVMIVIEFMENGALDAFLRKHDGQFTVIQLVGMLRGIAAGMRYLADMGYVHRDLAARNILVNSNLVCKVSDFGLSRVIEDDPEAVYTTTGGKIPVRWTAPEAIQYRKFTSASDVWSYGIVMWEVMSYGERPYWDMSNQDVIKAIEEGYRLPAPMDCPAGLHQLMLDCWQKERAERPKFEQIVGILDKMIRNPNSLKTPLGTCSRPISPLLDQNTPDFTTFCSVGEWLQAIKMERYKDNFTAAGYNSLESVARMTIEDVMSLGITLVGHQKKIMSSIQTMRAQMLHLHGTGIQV
Chain of CAMKK2 (human) (Q96RR4 whole entry, looked up): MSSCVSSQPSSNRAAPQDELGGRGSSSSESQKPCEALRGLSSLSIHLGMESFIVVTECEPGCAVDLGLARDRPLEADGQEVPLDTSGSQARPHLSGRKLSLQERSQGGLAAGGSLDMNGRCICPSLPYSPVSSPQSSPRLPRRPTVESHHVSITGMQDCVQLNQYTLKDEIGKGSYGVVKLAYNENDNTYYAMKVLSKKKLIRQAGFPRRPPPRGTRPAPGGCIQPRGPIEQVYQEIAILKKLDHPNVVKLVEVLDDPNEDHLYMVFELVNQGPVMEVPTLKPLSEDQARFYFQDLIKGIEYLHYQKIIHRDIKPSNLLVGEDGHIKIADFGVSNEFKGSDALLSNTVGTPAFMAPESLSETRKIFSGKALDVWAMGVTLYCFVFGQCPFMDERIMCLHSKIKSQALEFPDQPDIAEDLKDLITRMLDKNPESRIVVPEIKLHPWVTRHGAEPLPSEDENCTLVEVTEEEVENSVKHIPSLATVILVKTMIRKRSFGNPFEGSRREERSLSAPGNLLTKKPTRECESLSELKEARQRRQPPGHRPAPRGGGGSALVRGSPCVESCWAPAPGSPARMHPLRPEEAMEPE
Chain of BMX (human) (P51813 whole entry, looked up): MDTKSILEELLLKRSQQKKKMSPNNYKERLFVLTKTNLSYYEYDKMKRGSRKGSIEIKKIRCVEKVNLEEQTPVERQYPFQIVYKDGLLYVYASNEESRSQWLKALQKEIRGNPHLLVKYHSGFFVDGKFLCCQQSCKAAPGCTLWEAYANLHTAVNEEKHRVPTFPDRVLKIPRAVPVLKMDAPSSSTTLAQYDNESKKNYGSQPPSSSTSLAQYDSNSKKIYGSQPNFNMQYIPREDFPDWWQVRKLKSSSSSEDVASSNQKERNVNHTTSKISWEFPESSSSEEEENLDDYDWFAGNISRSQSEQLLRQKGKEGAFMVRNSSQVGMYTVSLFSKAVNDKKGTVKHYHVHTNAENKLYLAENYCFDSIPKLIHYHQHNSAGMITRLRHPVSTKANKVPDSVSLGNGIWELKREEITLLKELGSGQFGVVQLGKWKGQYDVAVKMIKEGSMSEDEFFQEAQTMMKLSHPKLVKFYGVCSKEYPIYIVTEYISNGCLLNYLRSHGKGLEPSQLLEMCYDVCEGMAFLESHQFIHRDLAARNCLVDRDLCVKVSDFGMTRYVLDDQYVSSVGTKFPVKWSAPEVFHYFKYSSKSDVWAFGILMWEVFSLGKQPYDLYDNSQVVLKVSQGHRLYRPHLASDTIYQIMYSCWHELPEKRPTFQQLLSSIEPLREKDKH
Chain of PRKCH (human) (P24723 whole entry, looked up): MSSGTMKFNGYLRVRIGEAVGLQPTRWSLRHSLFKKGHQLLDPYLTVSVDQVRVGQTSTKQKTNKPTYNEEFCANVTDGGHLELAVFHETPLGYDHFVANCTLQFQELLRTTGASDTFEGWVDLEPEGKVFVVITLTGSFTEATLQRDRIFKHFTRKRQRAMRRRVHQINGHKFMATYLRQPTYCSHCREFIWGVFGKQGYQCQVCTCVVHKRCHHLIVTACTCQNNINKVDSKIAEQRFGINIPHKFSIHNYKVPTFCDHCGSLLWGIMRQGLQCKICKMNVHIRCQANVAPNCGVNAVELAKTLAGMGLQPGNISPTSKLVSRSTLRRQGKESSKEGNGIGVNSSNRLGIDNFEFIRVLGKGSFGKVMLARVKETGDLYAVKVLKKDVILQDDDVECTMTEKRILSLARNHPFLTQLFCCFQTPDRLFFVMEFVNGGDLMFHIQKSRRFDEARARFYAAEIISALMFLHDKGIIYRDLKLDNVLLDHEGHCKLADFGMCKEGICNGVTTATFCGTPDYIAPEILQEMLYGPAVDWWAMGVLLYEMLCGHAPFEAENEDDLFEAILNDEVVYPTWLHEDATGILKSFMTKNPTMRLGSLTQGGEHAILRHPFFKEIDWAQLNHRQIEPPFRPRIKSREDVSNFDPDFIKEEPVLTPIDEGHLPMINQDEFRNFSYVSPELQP
Chain of LYN (human) (P07948 whole entry, looked up): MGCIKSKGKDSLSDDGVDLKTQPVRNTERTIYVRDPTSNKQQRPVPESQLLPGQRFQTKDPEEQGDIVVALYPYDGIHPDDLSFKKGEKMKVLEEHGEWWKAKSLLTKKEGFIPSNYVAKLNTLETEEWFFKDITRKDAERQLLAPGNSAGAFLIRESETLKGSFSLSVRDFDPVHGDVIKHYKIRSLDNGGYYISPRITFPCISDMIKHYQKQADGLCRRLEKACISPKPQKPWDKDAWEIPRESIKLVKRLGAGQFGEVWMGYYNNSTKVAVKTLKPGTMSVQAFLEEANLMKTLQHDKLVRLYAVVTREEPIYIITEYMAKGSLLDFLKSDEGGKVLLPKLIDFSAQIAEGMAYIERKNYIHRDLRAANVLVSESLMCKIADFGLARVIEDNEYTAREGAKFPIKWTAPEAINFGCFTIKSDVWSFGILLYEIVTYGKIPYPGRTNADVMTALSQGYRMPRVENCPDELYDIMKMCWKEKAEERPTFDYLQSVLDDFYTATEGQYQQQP
Chain of GSG2 (human) (Q8TF76 whole entry, looked up): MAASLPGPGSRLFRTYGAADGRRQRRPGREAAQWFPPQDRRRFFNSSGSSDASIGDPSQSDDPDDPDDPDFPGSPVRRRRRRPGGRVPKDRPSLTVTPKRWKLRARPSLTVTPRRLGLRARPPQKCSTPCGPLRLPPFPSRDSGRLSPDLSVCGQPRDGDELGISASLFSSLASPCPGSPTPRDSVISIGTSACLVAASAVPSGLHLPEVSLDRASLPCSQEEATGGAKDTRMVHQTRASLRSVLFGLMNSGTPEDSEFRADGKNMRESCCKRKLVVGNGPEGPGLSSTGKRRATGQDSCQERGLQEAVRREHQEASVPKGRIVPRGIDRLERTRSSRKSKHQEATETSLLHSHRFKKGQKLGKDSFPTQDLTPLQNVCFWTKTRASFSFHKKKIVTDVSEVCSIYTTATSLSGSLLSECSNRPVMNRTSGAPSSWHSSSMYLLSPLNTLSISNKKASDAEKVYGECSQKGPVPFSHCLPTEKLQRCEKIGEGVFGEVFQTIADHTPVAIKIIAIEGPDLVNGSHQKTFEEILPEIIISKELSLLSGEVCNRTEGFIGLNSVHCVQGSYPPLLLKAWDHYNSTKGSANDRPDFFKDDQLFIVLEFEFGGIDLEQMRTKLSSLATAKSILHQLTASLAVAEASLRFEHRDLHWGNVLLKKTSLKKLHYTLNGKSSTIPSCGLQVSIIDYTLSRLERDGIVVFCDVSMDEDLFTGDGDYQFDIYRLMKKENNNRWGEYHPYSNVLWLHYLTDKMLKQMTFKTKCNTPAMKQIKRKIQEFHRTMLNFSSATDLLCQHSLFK
Chain of STK17A (human) (Q9UEE5 whole entry, looked up): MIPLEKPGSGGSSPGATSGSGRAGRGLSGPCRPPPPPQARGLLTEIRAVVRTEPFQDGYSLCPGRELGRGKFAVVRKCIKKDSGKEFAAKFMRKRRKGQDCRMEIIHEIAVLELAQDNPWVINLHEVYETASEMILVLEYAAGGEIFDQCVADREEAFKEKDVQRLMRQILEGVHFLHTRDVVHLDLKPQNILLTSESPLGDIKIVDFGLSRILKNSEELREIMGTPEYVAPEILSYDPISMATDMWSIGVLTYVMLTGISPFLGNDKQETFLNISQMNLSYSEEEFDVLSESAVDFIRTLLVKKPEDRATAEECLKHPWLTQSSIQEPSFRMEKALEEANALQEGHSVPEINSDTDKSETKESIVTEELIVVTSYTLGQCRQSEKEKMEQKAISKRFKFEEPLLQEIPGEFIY
Chain of TSSK2 (human) (Q96PF2 whole entry, looked up): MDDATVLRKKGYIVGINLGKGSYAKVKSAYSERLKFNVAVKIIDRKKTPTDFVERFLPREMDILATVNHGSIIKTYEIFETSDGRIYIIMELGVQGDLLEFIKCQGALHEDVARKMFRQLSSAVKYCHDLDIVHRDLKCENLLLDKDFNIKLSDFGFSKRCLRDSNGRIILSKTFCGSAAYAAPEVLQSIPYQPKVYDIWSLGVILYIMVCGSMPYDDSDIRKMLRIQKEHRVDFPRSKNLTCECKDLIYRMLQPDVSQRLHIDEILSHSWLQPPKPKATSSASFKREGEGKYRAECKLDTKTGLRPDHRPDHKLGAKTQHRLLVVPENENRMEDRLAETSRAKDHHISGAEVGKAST

Cn1sc(=O)n(Cc2ccccc2)c1=O
residual activity (MAP4K4 (human)): 97%
residual activity (STK16 (human)): 105%
residual activity (TAOK2 (human)): 91%
residual activity (MAP2K2 (human)): 101%
residual activity (MAP3K2 (human)): 94.7%
residual activity (SYK (human)): 92.2%
residual activity (PRKCD (human)): 94.1%
residual activity (MAP3K7 TAB1 (human)): 105%
residual activity (PIM1 (human)): 93%
residual activity (PRKCH (human)): 89%
residual activity (PASK (human)): 101%
residual activity (STK17A (human)): 101%
residual activity (NEK4 (human)): 98%
residual activity (DCLK2 (human)): 98.5%
residual activity (MARK2 (human)): 118%
residual activity (BRSK1 (human)): 102%
residual activity (PRKG1 (human)): 93.2% and 95.9%
residual activity (MARK3 (human)): 97.1%
residual activity (EGFR (human)): 105%
residual activity (CDK2 CCNE1 (human)): 95.1%
residual activity (FYN (human)): 105%
residual activity (CSNK1D (human)): 100%
residual activity (TSSK2 (human)): 100%
residual activity (CDK6 CCND1 (human)): 106%
residual activity (TSSK1B (human)): 94.4%
residual activity (OXSR1 (human)): 91.1%
residual activity (CAMKK2 (human)): 95.2%
residual activity (BMX (human)): 91.6%
residual activity (ZAP70 (human)): 102%
residual activity (EPHA1 (human)): 106%
residual activity (DMPK (human)): 100%
residual activity (GSG2 (human)): 99%
residual activity (STK33 (human)): 101%
residual activity (GRK6 (human)): 104%
residual activity (IRAK1 (human)): 116%
residual activity (LYN (human)): 90.8% and 98.9%
residual activity (AXL (human)): 96.9%
residual activity (PRKCI (human)): 95.2%
residual activity (ADRBK1 (human)): 96.7%
residual activity (EPHA7 (human)): 105%
residual activity (NEK11 (human)): 102%
residual activity (RAF1 (human)): 97.2%

O=C(Nc1cccc(Nc2cc(Nc3cccc(C(F)(F)F)c3)ncn2)c1)C1CC1
residual activity (MAP4K4 (human)): 102%
residual activity (STK16 (human)): 107%
residual activity (TAOK2 (human)): 103%
residual activity (MAP2K2 (human)): 101%
residual activity (MAP3K2 (human)): 91.8%
residual activity (SYK (human)): 94.9%
residual activity (PRKCD (human)): 101%
residual activity (MAP3K7 TAB1 (human)): 99.3%
residual activity (PIM1 (human)): 104%
residual activity (PRKCH (human)): 88.2%
residual activity (PASK (human)): 98.3%
residual activity (STK17A (human)): 99.2%
residual activity (NEK4 (human)): 90.6%
residual activity (DCLK2 (human)): 101%
residual activity (MARK2 (human)): 101%
residual activity (BRSK1 (human)): 101%
residual activity (PRKG1 (human)): 90.6% and 96.4%
residual activity (MARK3 (human)): 105%
residual activity (EGFR (human)): 5.82%
residual activity (CDK2 CCNE1 (human)): 96.7%
residual activity (FYN (human)): 100%
residual activity (CSNK1D (human)): 98.9%
residual activity (TSSK2 (human)): 103%
residual activity (CDK6 CCND1 (human)): 99.1%
residual activity (TSSK1B (human)): 104%
residual activity (OXSR1 (human)): 110%
residual activity (CAMKK2 (human)): 98.5%
residual activity (BMX (human)): 93.7%
residual activity (ZAP70 (human)): 93%
residual activity (EPHA1 (human)): 92.9%
residual activity (DMPK (human)): 99.7%
residual activity (GSG2 (human)): 96.4%
residual activity (STK33 (human)): 105%
residual activity (GRK6 (human)): 98.3%
residual activity (IRAK1 (human)): 111%
residual activity (LYN (human)): 102% and 99.1%
residual activity (AXL (human)): 98.7%
residual activity (PRKCI (human)): 98.1%
residual activity (ADRBK1 (human)): 97.9%
residual activity (EPHA7 (human)): 101%
residual activity (NEK11 (human)): 94.3%
residual activity (RAF1 (human)): 98.4%

O=C(CCCc1ccc(-c2ccccc2F)cc1)Nc1ccc(O)cc1
residual activity (MAP4K4 (human)): 92.9%
residual activity (STK16 (human)): 111%
residual activity (TAOK2 (human)): 98.4%
residual activity (MAP2K2 (human)): 95.1%
residual activity (MAP3K2 (human)): 89.1%
residual activity (SYK (human)): 101%
residual activity (PRKCD (human)): 110%
residual activity (MAP3K7 TAB1 (human)): 105%
residual activity (PIM1 (human)): 97.9%
residual activity (PRKCH (human)): 84%
residual activity (PASK (human)): 101%
residual activity (STK17A (human)): 101%
residual activity (NEK4 (human)): 103%
residual activity (DCLK2 (human)): 96.1%
residual activity (MARK2 (human)): 91.5%
residual activity (BRSK1 (human)): 103%
residual activity (PRKG1 (human)): 95.5% and 99.9%
residual activity (MARK3 (human)): 101%
residual activity (EGFR (human)): 87.9%
residual activity (CDK2 CCNE1 (human)): 91.9%
residual activity (FYN (human)): 94.7%
residual activity (CSNK1D (human)): 102%
residual activity (TSSK2 (human)): 115%
residual activity (CDK6 CCND1 (human)): 98.2%
residual activity (TSSK1B (human)): 107%
residual activity (OXSR1 (human)): 102%
residual activity (CAMKK2 (human)): 86.6%
residual activity (BMX (human)): 99.6%
residual activity (ZAP70 (human)): 99.7%
residual activity (EPHA1 (human)): 117%
residual activity (DMPK (human)): 130%
residual activity (GSG2 (human)): 94.7%
residual activity (STK33 (human)): 97%
residual activity (GRK6 (human)): 104%
residual activity (IRAK1 (human)): 100%
residual activity (LYN (human)): 102% and 87.7%
residual activity (AXL (human)): 91.4%
residual activity (PRKCI (human)): 95.5%
residual activity (ADRBK1 (human)): 105%
residual activity (EPHA7 (human)): 104%
residual activity (NEK11 (human)): 100%
residual activity (RAF1 (human)): 102%
